Biological target: T1, N-acylethanolamine-hydrolyzing acid amidase (NAAA) (Homo sapiens, UniProt Q02083)
T1 construct: human recombinant NAAA stably expressed in HEK-293 cells (12000 × g membrane fraction)
T1 sequence (Q02083 29-125): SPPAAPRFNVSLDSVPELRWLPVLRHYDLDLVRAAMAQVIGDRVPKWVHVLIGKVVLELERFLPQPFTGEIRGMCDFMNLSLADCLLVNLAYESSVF
T1 sequence (Q02083 126-359): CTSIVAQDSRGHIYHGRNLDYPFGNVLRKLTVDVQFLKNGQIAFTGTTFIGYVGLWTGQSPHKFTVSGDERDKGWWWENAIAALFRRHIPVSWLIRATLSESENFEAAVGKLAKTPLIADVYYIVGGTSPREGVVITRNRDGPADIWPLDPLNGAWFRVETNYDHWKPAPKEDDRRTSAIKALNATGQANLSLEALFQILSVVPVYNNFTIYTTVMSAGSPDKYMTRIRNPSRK
Experiment: [3H]-PEA hydrolysis assay in membranes of HEK-293 cells overexpressing human NAAA, pH […]
Format: cell-based
Details: HEK293

inhibition at 50 µM: 75%
Compound: CCCCCCCCCCCCCCCC1=NCCO1 [PEA-OXA, 2-Pentadecyl-2-oxazoline]
